According to patent US8232407B2, “Nitrogenous heterocyclic compounds with insecticidal activity, and the preparation and use thereof” (East China University of Science and Technology, priority 2008, dated 2012):

What was measured:
Aphis craccivoral = test: Insecticidal activities to aphids, immersion method; type: in vivo; details: in vivo
Description: (1): Insecticidal Activities to Aphids
Aphis (Aphis craccivoral), which belongs to Homoptera and has a piercing-sucking mouthpart, is a common insect for agricultural plant. Aphis craccivoral was tested by immersion method.
Procedure: exactly weighed various samples were independently added to N,N-dimethylformamide to form 10 g/L stock solutions. The stock solutions were diluted with 0.2 mL/L aqueous Triton X-100 solution to a concentration of 500 ppm. After stably sucking on bean sprout, the wingless adult aphis together with bean sprout were dipped into 500 ppm dilution, taken out after 5 seconds, and the excess dilution was sucked off with bibulous paper. The treated wingless adult aphis was incubated in clean vessel at a constant temperature of 23° C. Each concentration was repeated for 3 times and the control group was treated with 0.2mL/L aqueous Triton X-100 solution. The number of killed aphis was counted after 24 hours and the mortality was to calculated according to the following formula:
(§1) Mortality (%)=(the number of the survival aphis in control group−the number of the survival aphis in the treatment group)/the number of the survival aphis in control group×100%

Nilaparvata lugens = test: Insecticidal activities to plant hopper, spraying method; type: in vivo; details: in vivo
Description: as §1
(2): Insecticidal Activities to Plant hopper
Plant hopper (Nilaparvata lugens), which belongs to Homoptera and has a piercing-sucking mouthpart, is a common insect for agricultural plant. Nilaparvata lugens was tested by spraying method.
Procedure: the test compound was exactly formulated with acetone to form solutions having concentrations of 500, 250, 100, 50, 25, 12.5, 6.25, 3.13, 1.57 and 0.79 ppm, respectively. Aqueous acetone solution was used as control. Each treatment was repeated for 3 tumblers (3 times). Two ml of solution was sprayed uniformly to each tumbler with a mini manual sprayer. 10 insects were introduced to every basin 6 hours before spraying. Three series of experiments were conducted. The number of killed insects was counted after 24 hours to calculate the mortality according to the above mentioned formula.

Row | Structure (SMILES) | Aphis craccivoral Mortality (%) 500 ppm (Aphis craccivoral) [%] | Nilaparvata lugens Mortality (%) 500 ppm (Nilaparvata lugens) [%]
1 | CN=C(C(=Cc1ccc([N+](=O)[O-])s1)[N+](=O)[O-])N(C)Cc1ccc(Cl)nc1 [Compound 238] | 91 | 98
2 | CN=C(C(=Cc1ccc([N+](=O)[O-])o1)[N+](=O)[O-])N(C)Cc1ccc(Cl)nc1 [Compound 163] | 100 | 100
3 | CCN=C(C(=Cc1cccs1)[N+](=O)[O-])N(C)Cc1ccc(Cl)nc1 [Compound 175] | 100 | 100
4 | CN=C(C(=C(C)c1ccc[nH]1)[N+](=O)[O-])N(C)C(C)c1ccc(Cl)nc1 (centres unmarked) [Compound 216] | 100 | 100
5 | CCN(Cc1cnc(Cl)s1)C(=NC)C(=Cc1ccc[nH]1)[N+](=O)[O-] [Compound 231] | 37 | 76
6 | CN=C(C(=Cc1ccco1)[N+](=O)[O-])N(C)Cc1ccc(Cl)nc1 [Compound 232] | 96 | 56
7 | CCN(Cc1ccc(Cl)nc1)C(=NC)C(=C(C)c1ccc([N+](=O)[O-])o1)[N+](=O)[O-] [Compound 197] | 98 | 100
8 | CCN(Cc1ccc(Cl)nc1)C(=NC)C(=C(C)c1ccc(Br)o1)[N+](=O)[O-] [Compound 199] | 84 | 100
9 | CN=C(C(=Cc1cccs1)[N+](=O)[O-])N(C)Cc1ccc(Cl)nc1 [Compound 236] | 82 | 79
10 | CCN(Cc1ccc(Cl)nc1)C(=NC)C(=C(C)c1ccsc1)[N+](=O)[O-] [Compound 201] | 100 | 100
11 | CN=C(C(=Cc1ccc[nH]1)[N+](=O)[O-])N(C)Cc1cnc(Cl)s1 [Compound 224] | 32 | 52
12 | CN=C(C(=Cc1ccc([N+](=O)[O-])s1)[N+](=O)[O-])N(C)Cc1ccc(Cl)nc1 [Compound 168] | 80 | 90
13 | CCN=C(C(=Cc1ccc(Cl)o1)[N+](=O)[O-])N(CC)Cc1ccc(Cl)nc1 [Compound 192] | 97 | 100
14 | CN=C(C(=Cc1ccc([N+](=O)[O-])o1)[N+](=O)[O-])N(C)Cc1cnc(Cl)s1 [Compound 217] | 77 | 43
15 | CCN=C(C(=Cc1ccc[nH]1)[N+](=O)[O-])N(C)Cc1ccc(Cl)nc1 [Compound 178] | 100 | 100
16 | CN=C(C(=Cc1ccc(Cl)s1)[N+](=O)[O-])N(C)Cc1ccc(Cl)nc1 [Compound 239] | 58 | 34
17 | CN=C(NCc1ccc(Cl)nc1)C(=Cc1ccc([N+](=O)[O-])s1)[N+](=O)[O-] [Compound 158] | 43 | 43
18 | CCN(Cc1cnc(Cl)s1)C(=NC)C(=Cc1ccco1)[N+](=O)[O-] [Compound 225] | 90 | 78
19 | CCN(Cc1cnc(Cl)s1)C(=NC)C(=Cc1ccc([N+](=O)[O-])o1)[N+](=O)[O-] [Compound 227] | 100 | 100
20 | CN=C(C(=Cc1ccc(Cl)s1)[N+](=O)[O-])N(C)Cc1cnc(Cl)s1 [Compound 223] | 65 | 53
21 | CCN=C(C(=Cc1ccco1)[N+](=O)[O-])N(CC)Cc1ccc(Cl)nc1 [Compound 189] | 86 | 100
22 | CCN(Cc1ccc(Cl)nc1)C(=NC)C(=Cc1ccc[nH]1)[N+](=O)[O-] [Compound 243] | 96 | 100
23 | CCN(Cc1ccc(Cl)nc1)C(=NC)C(=C(C)c1ccc(Cl)o1)[N+](=O)[O-] [Compound 198] | 86 | 100
24 | CCN=C(C(=Cc1ccc(Cl)o1)[N+](=O)[O-])N(C)Cc1ccc(Cl)nc1 [Compound 173] | 87 | 85

Row | Structure (SMILES) | Aphis craccivoral Mortality (%) 500 ppm (Aphis craccivoral) [%] | Nilaparvata lugens Mortality (%) 500 ppm (Nilaparvata lugens) [%]
25 | CCN(Cc1ccc(Cl)nc1)C(=NC)C(=C(C)c1ccc([N+](=O)[O-])s1)[N+](=O)[O-] [Compound 202] | 100 | 100
26 | CN=C(C(=Cc1ccc(Br)o1)[N+](=O)[O-])N(C)Cc1ccc(Cl)nc1 [Compound 235] | 91 | 86
27 | CCN(Cc1ccc(Cl)nc1)C(=NC)C(=Cc1ccco1)[N+](=O)[O-] [Compound 179] | 100 | 100
28 | CN=C(C(=C(C)c1ccc[nH]1)[N+](=O)[O-])N(C)Cc1ccc(Cl)nc1 [Compound 194] | 98 | 100
29 | CCN=C(C(=Cc1ccc(Cl)s1)[N+](=O)[O-])N(C)Cc1ccc(Cl)nc1 [Compound 177] | 87 | 100
30 | CN=C(C(=C(C)c1ccc([N+](=O)[O-])s1)[N+](=O)[O-])N(C)C(C)c1ccc(Cl)nc1 (centres unmarked) [Compound 214] | 98 | 100
31 | CN=C(C(=Cc1ccoc1)[N+](=O)[O-])N(C)Cc1ccc(Cl)nc1 [Compound 233] | 80 | 86
32 | CN=C(C(=C(C)c1ccc([N+](=O)[O-])o1)[N+](=O)[O-])N(C)C(C)c1ccc(Cl)nc1 (centres unmarked) [Compound 212] | 96 | 100
33 | CCN=C(C(=Cc1ccc(Br)o1)[N+](=O)[O-])N(C)Cc1ccc(Cl)nc1 [Compound 174] | 100 | 100
34 | CN=C(NCc1ccc(Cl)nc1)C(=Cc1ccoc1)[N+](=O)[O-] [Compound 152] | 67 | 64
35 | CCN(C(=NC)C(=Cc1ccc(Cl)o1)[N+](=O)[O-])C(C)c1ccc(Cl)nc1 (centres unmarked) [Compound 208] | 42 | 100
36 | CN=C(C(=C(C)c1ccsc1)[N+](=O)[O-])N(C)C(C)c1ccc(Cl)nc1 (centres unmarked) [Compound 213] | 89 | 68
37 | CCN(C(=NC)C(=Cc1ccco1)[N+](=O)[O-])C(C)c1ccc(Cl)nc1 (centres unmarked) [Compound 205] | 56 | 87
38 | CCN(C(=NC)C(=Cc1ccc(Br)o1)[N+](=O)[O-])C(C)c1ccc(Cl)nc1 (centres unmarked) [Compound 209] | 88 | 100
39 | CCN=C(C(=Cc1ccc([N+](=O)[O-])o1)[N+](=O)[O-])N(CC)Cc1ccc(Cl)nc1 [Compound 191] | 95 | 100
40 | CCN(Cc1ccc(Cl)nc1)C(=NC)C(=Cc1ccc(Br)o1)[N+](=O)[O-] [Compound 183] | 100 | 100
41 | CCN=C(C(=Cc1ccc([N+](=O)[O-])s1)[N+](=O)[O-])N(C)Cc1ccc(Cl)nc1 [Compound 176] | 86 | 100
42 | CN=C(C(=Cc1ccc[nH]1)[N+](=O)[O-])N(C)Cc1ccc(Cl)nc1 [Compound 240] | 77 | 68
43 | CCN(Cc1ccc(Cl)nc1)C(=NC)C(=Cc1ccsc1)[N+](=O)[O-] [Compound 185] | 100 | 100
44 | CCN(Cc1ccc(Cl)nc1)C(=NC)C(=Cc1ccc([N+](=O)[O-])o1)[N+](=O)[O-] [Compound 181] | 100 | 100
45 | CN=C(C(=Cc1ccc(Cl)o1)[N+](=O)[O-])N(C)Cc1ccc(Cl)nc1 [Compound 234] | 37 | 44
46 | CCN(Cc1ccc(Cl)nc1)C(=NC)C(=C(C)c1ccco1)[N+](=O)[O-] [Compound 195] | 100 | –
47 | CCN(C(=NC)C(=Cc1ccoc1)[N+](=O)[O-])C(C)c1ccc(Cl)nc1 (centres unmarked) [Compound 206] | 65 | 44
48 | CCN(Cc1ccc(Cl)nc1)C(=NC)C(=C(C)c1ccc[nH]1)[N+](=O)[O-] [Compound 204] | 92 | 100
